Data from patent US8268823B2, “Medical use of triazine derivatives” (University of Greenwich, priority 2006, dated 2012).
Where two headings read alike, the source gives them in different places.

Key:
[1] = system: sodium channel; assay: veratrine-evoked uptake of [14C]guanidine into rat forebrain synaptosomes ([14C]guanidine flux); type: biochemical
Procedure: The screening strategy is designed to select compounds with appropriate sodium channel blocking activity and low side effect liability. To this end all compounds are processed through the primary sodium channel assay (veratrine-evoked uptake of [^14C]guanidine into rat forebrain synaptosomes) and IC50 values computed from generated concentration-effect curves.
Synaptosomes (heavy and light mitochondrial fraction containing synaptosomes) were prepared by transferring the forebrain (of known wet weight) to a glass Potter vessel to which 9 volumes ice-cold 0.25M sucrose had been added and homogenising, using a teflon pestle, by 8 ‘up and down strokes’ of a Braun Potter S motor driven homogeniser set to 900 rpm. The resulting homogenate was centrifuged at 1036×g at 4° for 10 min and the supernatant collected. The remaining pellet was resuspended, as above, in fresh ice-cold 0.25M sucrose and the centrifugation step repeated. The supernatant fractions were pooled and centrifuged at 40,000×g (average) at 4° for 15 min and the resulting pellet resuspended in the appropriate assay buffer at a concentration of 20-25 mg wet weight per ml appropriate assay buffer.
Both assays were carried out using 14 ml polypropylene test tubes to which a range of concentrations of the compounds under test were added.
Compounds under test were pre-incubated for 10 min at 30° in incubation buffer (50 mM pH 7.4 HEPES (adjusted to pH 7.4 with Tris base), 130 mM choline chloride, 5.5 mM D-glucose, 0.8 mm MgSO4 and 5 mM KCl) containing 7.5 mg original wet weight of tissue and 100 μg veratrine HCl in a final volume of 0.5 ml. […] A further 2×5 ml of ice-cold wash buffer was added to each tube and the vacuum filtration step repeated. The GF/C glass fibre filters were transferred to minivials and 4 ml Picofluor^40 liquid scintillant added using a Brandel™ deposit/dispense system. Radioactivity was measured using a Beckman Liquid Scintillation Counter.
(§1) Data are presented as mean±sem of number of experiments indicated in brackets.

[2] = system: sodium channel; type: binding, rat
[3] = target: T1, DiHydroFolate Reductase (DHFR) (Rattus norvegicus, UniProt Q920D2); assay: inhibition of binding of [3H]methotrexate to rat liver homogenate supernatant; conditions: for IC50: rat liver supernatant
T1 construct: from tissue; host or cells: rat liver homogenate supernatant (47,500 x g)
T1 sequence (Q920D2 1-187): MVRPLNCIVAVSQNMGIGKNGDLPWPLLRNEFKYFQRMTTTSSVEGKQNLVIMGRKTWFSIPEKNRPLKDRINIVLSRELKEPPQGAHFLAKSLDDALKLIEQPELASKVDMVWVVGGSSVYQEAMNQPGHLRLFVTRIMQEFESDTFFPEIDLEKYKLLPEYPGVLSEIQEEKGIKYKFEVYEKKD
Procedure: All steps were carried out at 4° (or on ice). Freshly dissected rat liver was dissected into 0.25M ice-cold Sucrose and subsequently homogenised (U-turrax) in 50 mM pH 6.0 phosphate buffer (10 ml/g tissue) containing 15 mM Dithiothreitol. The resulting homogenate was centrifuged @ 47,500×g for 20 min and supernatant (filtered through cotton wool to remove fatty lumps) stored @-80° before use (Rothenberg et al).
The binding reaction was stopped by the addition of 50 μl of a charcoal suspension (consisting of charcoal, Bovine Serum Albumin and Dextran present in a weight ratio of 100:4:1 suspended in 50 mM pH 6.0 phosphate buffer. Samples were vortexed, allowed to stand for 2 minutes and charcoal was precipitated by microcentrifugation @ full speed for 5 min. Aliquots of clear supernatant were transferred to counting vials containing liquid scintillant for measurement of radioactivity using Liquid Scintillation Spectroscopy.
Percentage inhibition values were calculated by comparison to this value.
as §1

[4] = target: T2, hERG potassium channel (Homo sapiens, UniProt Q12809); assay: in vitro; conditions: for selectivity ratio: hERG / [3H]BTX-B selectivity, ratio of extrapolated hERG IC50 to [3H]BTX-B IC50 (synaptosomes)
[5] = target: T2, hERG potassium channel; assay: inhibition of binding of [3H]astemizole to cell membranes expressing hERG; conditions: for selectivity ratio: human, cell membranes expressing hERG, probe [3H]astemizole
[6] = Table 3, rat forebrain synaptosomes, read-out: [14C]guanidine flux Mean (IC50: μM)
[7] = Table 4, tissue prep'n Synaptosomes, read-out: [3H]BTX-B binding Mean (IC50: μM)
[8] = Table 5, read-out: [14C]guanidine flux IC50
[9] = read-out: [3H]methotrexate binding Inhibition (% @ assay conc'n), assay concentration 10 μM
[10] = read-out: [3H]methotrexate binding Inhibition (% @ assay conc'n), assay concentration 99 μM
[11] = Table 5, Synaptosome data, read-out: [3H]BTX-B IC50

T2 sequence (Q12809 whole entry): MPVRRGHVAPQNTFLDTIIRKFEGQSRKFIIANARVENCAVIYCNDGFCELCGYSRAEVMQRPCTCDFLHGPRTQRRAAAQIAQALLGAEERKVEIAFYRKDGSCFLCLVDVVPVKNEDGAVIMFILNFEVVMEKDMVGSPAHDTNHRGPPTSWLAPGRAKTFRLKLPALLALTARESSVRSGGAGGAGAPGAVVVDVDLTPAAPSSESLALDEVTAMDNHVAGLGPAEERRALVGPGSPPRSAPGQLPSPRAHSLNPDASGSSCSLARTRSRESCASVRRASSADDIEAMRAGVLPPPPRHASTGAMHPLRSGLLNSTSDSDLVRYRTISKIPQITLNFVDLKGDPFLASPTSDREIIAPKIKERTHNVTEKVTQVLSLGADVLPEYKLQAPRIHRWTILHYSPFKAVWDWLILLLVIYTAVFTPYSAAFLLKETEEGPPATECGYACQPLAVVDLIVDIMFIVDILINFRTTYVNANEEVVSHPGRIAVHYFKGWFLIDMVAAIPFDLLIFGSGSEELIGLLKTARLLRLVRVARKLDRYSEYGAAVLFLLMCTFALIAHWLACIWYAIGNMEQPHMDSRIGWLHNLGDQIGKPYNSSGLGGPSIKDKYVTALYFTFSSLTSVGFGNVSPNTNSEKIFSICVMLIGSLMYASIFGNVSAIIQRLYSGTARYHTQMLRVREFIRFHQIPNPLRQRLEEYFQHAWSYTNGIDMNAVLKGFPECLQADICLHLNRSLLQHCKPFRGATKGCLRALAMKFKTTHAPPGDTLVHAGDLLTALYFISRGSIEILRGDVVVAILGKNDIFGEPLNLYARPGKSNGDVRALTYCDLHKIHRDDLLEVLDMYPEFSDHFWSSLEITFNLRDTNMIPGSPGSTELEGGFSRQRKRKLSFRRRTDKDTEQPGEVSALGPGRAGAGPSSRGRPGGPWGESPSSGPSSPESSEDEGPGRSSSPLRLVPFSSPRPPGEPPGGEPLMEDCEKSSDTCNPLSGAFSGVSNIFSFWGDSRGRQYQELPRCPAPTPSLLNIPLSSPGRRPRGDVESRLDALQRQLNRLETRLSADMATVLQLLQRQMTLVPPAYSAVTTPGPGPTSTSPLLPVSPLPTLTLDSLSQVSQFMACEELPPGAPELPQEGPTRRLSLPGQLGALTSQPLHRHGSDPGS

Compound | IC50 [1, 6] [µM] | pIC50 (uptake of [14C]guanidine) ([1]; Table 8) | IC50 ([1]; Table 8, read-out: IC50 (μM) (uptake of [14C]guanidine)) [µM] | Hill (uptake of [14C]guanidine) ([1]; Table 8, slope) | IC50 ([2]; Table 1, synaptosomes, mean ± sem (n), read-out: [3H]BTX-B binding (synaptosomes), mean IC50) [µM] | IC50 ([2]; Table 4, tissue prep'n Homogenate, read-out: [3H]BTX-B binding Mean (IC50: μM)) [µM] | IC50 [2, 7] [µM] | [3H]methotrexate binding Inhibition (% @ assay conc'n) ([3]; assay concentration 10 μM) [%] | [3H]methotrexate binding Inhibition (% @ assay conc'n) ([3]; assay concentration 99 μM) [%] | IC50 [1, 8] [µM] | inhibition at 10 µM [3, 9] [%] | inhibition at 99 µM [3, 10] [%] | inhibition at 10 µM [4] [%] | IC50 [5] [µM] | selectivity ratio [5] | inhibition at 198 µM ([3]; read-out: [3H]methotrexate binding Inhibition (% @ assay conc'n), assay concentration 198 μM) [%] | IC50 [2, 11] [µM] | IC50 [3] [µM] | selectivity ratio [4]
Nc1nc(N)c(-c2cc(Cl)cc(Cl)c2Cl)c(CF)n1 [BW202W92, reference compound] | 2 | 5.61 ± 0.04 | 2.5 | 1.07 | 4.5 ± 0.4 | 4.1 | 4.5 | −1 | 29 | – | – | – | – | – | – | – | – | – | –
C=CCn1nc(-c2cccc(Cl)c2Cl)c(N)nc1=N [Example 10, 5(3)-Amino-6-(2,3-dichlorophenyl)-2,3(2,5)-dihydro-3(5)-imino-2-(prop-2-enyl)-1,2,4-triazine hemi-methanesulfonate] | 6.1 | – | – | – | – | – | – | – | – | 6.1 | -2 | -1 | 50 | 10 | 1.6 | – | – | – | –
N=c1nc(N)c(-c2cccc(Cl)c2Cl)nn1Cc1cccc(F)c1F [Example 13, 5(3)-Amino-6-(2,3-dichlorophenyl)-2,3(2,5)-dihydro-3(5)-imino-2-(2,3-difluoro)phenylmethyl-1,2,4-triazine] | 2.8 | – | – | – | – | – | – | – | – | 2.8 | -3 | -4 | 84 | 1.9 | 0.7 | – | – | – | –
N=c1nc(N)c(-c2cccc(Cl)c2Cl)nn1Cc1ccccc1F [Example 14, 5(3)-Amino-6-(2,3-dichlorophenyl)-2,3(2,5)-dihydro-3(5)-imino-2-(2-fluoro)phenylmethyl-1,2,4-triazine] | 2.8 | – | – | – | – | – | – | – | – | 2.8 | -1 | -4 | 80 | 2.5 | 0.9 | – | – | – | –
N=c1nc(N)c(-c2cccc(Cl)c2Cl)nn1Cc1cccc(F)c1 [Example 15, 5(3)-Amino-6-(2,3-dichlorophenyl)-2,3(2,5)-dihydro-3(5)-imino-2-(3-fluoro)phenylmethyl-1,2,4-triazine] | 3.9 | – | – | – | – | – | – | – | – | 3.9 | -4 | -5 | 83 | 2 | 0.5 | – | – | – | –
COc1ccccc1Cn1nc(-c2cccc(Cl)c2Cl)c(N)nc1=N [Example 17, 5(3)-Amino-6-(2,3-dichlorophenyl)-2,3(2,5)-dihydro-3(5)-imino-2-(2-methoxy)phenylmethyl-1,2,4-triazine] | 4.6 | – | – | – | – | – | – | – | – | 4.6 | -4 | – | 84 | 1.9 | 0.4 | -3 | – | – | –
COc1cccc(Cn2nc(-c3cccc(Cl)c3Cl)c(N)nc2=N)c1 [Example 18, 5(3)-Amino-6-(2,3-dichlorophenyl)-2,3(2,5)-dihydro-3(5)-imino-2-(3-methoxy)phenylmethyl-1,2,4-triazine] | 3.1 | – | – | – | – | – | – | – | – | 3.1 | -4 | -5 | 87 | 1.5 | 0.5 | – | – | – | –
N=c1nc(N)c(-c2cccc(Cl)c2Cl)nn1Cc1ccccc1C(F)(F)F [Example 23, 5(3)-Amino-6-(2,3-dichlorophenyl)-2,3(2,5)-dihydro-3(5)-imino-2-(2-trifluoromethyl)phenylmethyl-1,2,4-triazine] | 4.4 | – | – | – | – | – | – | – | – | 4.4 | – | – | 90 | 1.1 | 0.3 | – | – | – | –
N=c1nc(N)c(-c2cccc(Cl)c2Cl)nn1Cc1cccc(C(F)(F)F)c1 [Example 24, 5(3)-Amino-6-(2,3-dichlorophenyl)-2,3(2,5)-dihydro-3(5)-imino-2-(3-trifluoromethyl)phenylmethyl-1,2,4-triazine] | 4 | – | – | – | – | – | – | – | – | 4 | – | – | 94 | 0.6 | 0.2 | – | – | – | –
N=c1nc(N)c(-c2cccc(Cl)c2Cl)nn1Cc1ccsc1 [Example 29, 5(3)-Amino-6-(2,3-dichlorophenyl)-2,3(2,5)-dihydro-3(5)-imino-2-(3-thienylmethyl)-1,2,4-triazine] | 7.3 | – | – | – | – | – | 2.2 | – | – | 7.3 | – | – | 83 | 2 | 0.3 | – | 2.2 | > 250 | 0.9
N=c1nc(N)c(-c2cccc(Cl)c2Cl)nn1Cc1ccoc1 [Example 30, 5(3)-Amino-6-(2,3-dichlorophenyl)-2,3(2,5)-dihydro-3(5)-imino-2-(3-furanylmethyl)-1,2,4-triazine] | 4.4 | – | – | – | – | – | 2.6 | – | – | 4.4 | – | – | 65 | 5.4 | 1.2 | – | 2.6 | > 250 | 2.1
Cn1nc(-c2cccc(Cl)c2F)c(N)nc1=N [Example 36, 5(3)-Amino-6-(3-chloro-2-fluorophenyl)-2,3(2,5)-dihydro-3(5)-imino-2-methyl-1,2,4-triazine] | 129 | – | – | – | – | – | – | – | – | 129 | – | – | 33 | 20.3 | 0.2 | – | – | > 300 | –
N=c1nc(N)c(-c2cccc(Cl)c2Cl)nn1CC1CCNCC1 [Example 38, 4-[5(3)-Amino-6-(2,3-dichlorophenyl)-2,3(2,5)-dihydro-3(5)-imino-1,2,4-triazin-2-ylmethyl]piperidine dimethanesulfonate or 5(3)-Amino-6-(2,3-dichlorophenyl)-2,3(2,5)-dihydro-3(5)-imino-2-(piperidin-4-yl)methyl-1,2,4-triazine] | 20.9 | – | – | – | – | – | – | – | – | 20.9 | – | – | 80 | 2.5 | 0.1 | – | – | > 300 | –
N=c1nc(N)c(-c2cccc(Cl)c2Cl)nn1CCC(F)(F)F [Example 39, 5(3)-Amino-6-(2,3-dichlorophenyl)-2,3(2,5)-dihydro-3(5)-imino-2-(3,3,3-trifluoropropyl)-1,2,4-triazine] | 3.9 | – | – | – | – | – | 1.6 | – | – | 3.9 | – | – | 40 | 15 | 3.8 | – | 1.6 | > 300 | 9.4
